pKi: −log10 of the molar value. Bounds are passed on as bounds.

Experimental findings from patent US12029744B2, “Bicyclic heteroaryl derivatives as ectonucleotide pyrophosphatase phosphodiesterase 1 inhibitors” (Riboscience LLC, priority 2019, dated 2024) are described below.

In the first assay the target is T1, ENPP1 (Homo sapiens, UniProt P22413).
T1 sequence (P22413 1-925): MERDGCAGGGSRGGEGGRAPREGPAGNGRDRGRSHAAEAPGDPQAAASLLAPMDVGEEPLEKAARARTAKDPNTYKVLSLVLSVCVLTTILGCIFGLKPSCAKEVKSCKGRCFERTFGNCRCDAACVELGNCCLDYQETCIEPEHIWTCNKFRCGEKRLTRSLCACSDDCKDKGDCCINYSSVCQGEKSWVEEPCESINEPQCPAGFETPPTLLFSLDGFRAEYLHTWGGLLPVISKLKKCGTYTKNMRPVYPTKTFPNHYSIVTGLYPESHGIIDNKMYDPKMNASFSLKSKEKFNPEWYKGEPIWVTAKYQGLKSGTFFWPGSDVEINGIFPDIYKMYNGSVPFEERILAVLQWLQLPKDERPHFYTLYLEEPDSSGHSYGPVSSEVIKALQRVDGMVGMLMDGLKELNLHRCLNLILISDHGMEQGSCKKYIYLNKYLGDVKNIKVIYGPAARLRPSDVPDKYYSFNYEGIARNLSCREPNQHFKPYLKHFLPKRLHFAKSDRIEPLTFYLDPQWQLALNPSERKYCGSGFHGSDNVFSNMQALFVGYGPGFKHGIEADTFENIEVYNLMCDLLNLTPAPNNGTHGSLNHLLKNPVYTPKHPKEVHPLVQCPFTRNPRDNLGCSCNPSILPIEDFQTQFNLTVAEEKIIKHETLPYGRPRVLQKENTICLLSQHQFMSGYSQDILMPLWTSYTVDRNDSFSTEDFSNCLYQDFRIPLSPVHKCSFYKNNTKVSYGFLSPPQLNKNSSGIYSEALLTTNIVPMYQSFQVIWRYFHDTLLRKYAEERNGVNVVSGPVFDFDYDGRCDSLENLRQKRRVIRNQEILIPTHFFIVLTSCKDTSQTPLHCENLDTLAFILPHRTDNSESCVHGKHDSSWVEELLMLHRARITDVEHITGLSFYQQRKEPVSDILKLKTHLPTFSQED
Description: Measurement of pNP-TMP hydrolysis by ENPP1 (enzyme activity assay, absorbance at 405 nm). It counts as biochemical. The conditions noted are these: substrate pNP-TMP 500 μM, KM 232 μM; Ki from IC50 by Cheng-Prusoff; read-out: Ki (pNP-TMP). How it is done:
Measurement of pNP-TMP Hydrolysis by ENPP1
p-Nitrophenyl thymidine 5′-monophosphate (pNP-TMP) is a synthesized substrate for ENPP1. The ENPP1 enzyme activity assay with pNP-TMP substrate was conducted as follows:
Incubation of ENPP1 with compounds was set at 25° C. for 10 min. […] For each compound dilution, wells with assay buffer (50 mM Tris-HCl, pH8.8, 250 mM NaCl, 0.1 mg/ml BSA, 1% DMSO) only but no ENPP1 were included as controls for subtraction of test compound derived absorbance at 405 nm.
Absorbance at 405 nm was recorded immediately in kinetic mode by PerkinElmer 2300 Enspire multimode plate reader.
For each inhibitor, the specific ENPP1 activity was calculated using the following equation: ENPP1 activity (pmol/min/μg)=Adjusted Vmax (OD405 nm/min)×conversion factor (pmol/OD405 nm)/amount of enzyme (μg)
Adjusted Vmax=V0×(Km+(S))/(S).
V0=(OD405 nm with ENPP1−OD405 nm ENPP1 blank)/minutes. OD405 nm was plotted, with blank subtracted, against time (minutes), the initial linear rate is V0. […]
The slope is the conversion factor. The percent ENPP1 activity for each sample was calculated using the following equation: % enzyme activity=sample enzyme activity/MAX Activity×100%.
To determine the IC50 for each compound, compound concentration values and percent enzyme activity values were inserted into GraphPad Prism (GraphPad Prism version 7.0 for Windows, GraphPad Software, La Jolla California USA, www.graphpad.com), and Prism's Transform analysis was used to convert the x-axis values (compound concentration) to logarithms. A sigmoidal variable slope nonlinear regression analysis was performed using the following equation: Y=Bottom+(Top−Bottom)/(1+10^[…])).
For the compound `COc1cc2ncn(Cc3ccc(B(O)O)cc3)c2cc1OC` [Compound 1, 4-((5,6-dimethoxy-1,3-benzodiazol-1-yl)methyl)phenylboronic acid], the pKi was more than 7.00. The same measure, in the same setting: next, `NC(=O)c1ccc2c(ncn2Cc2ccc(B(O)O)cc2)n1` [Compound 59, 4-((5-carbamoylimidazo[4,5-b]pyridin-1-yl)methyl)phenylboronic acid]: more than 8.00. Regarding `CC(C)c1cc2c(O)nccc2n1Cc1ccc(B(O)O)cc1` [Compound 107, 4-((4-hydroxy-2-isopropylpyrrolo[3,2-c]pyridin-1-yl)methyl)phenylboronic acid], the pKi is more than 7.00.

In the case of `O=P(O)(O)c1ccc(Cn2cnc3nc(O)ccc32)cc1` [Compound 150, 4-((5-hydroxyimidazo[4,5-b]pyridin-1-yl)methyl)phenylphosphonic acid], the pKi was more than 7.00. For the compound `CCc1cc2c(O)nccc2n1Cc1ccc(B(O)O)cc1` [Compound 106, 4-((2-ethyl-4-hydroxypyrrolo[3,2-c]pyridin-1-yl)methyl)phenylboronic acid], the pKi was more than 8.00. Regarding `CC(C)c1nc2cc(C(N)=O)ccc2n1Cc1ccc(B(O)O)cc1` [Compound 37, 4-((5-carbamoyl-2-isopropyl-1,3-benzodiazol-1-yl)methyl)phenylboronic acid], the pKi was more than 8.00.

For a further assay, the system named is HGS tumor model. The experiment in a line: Anti-tumor activity in HGS tumor model. It counts as in vivo. The note with it: animals treated with 20/kg of compound, day 42 after inoculation (vehicle group 645).
Text: […]
The compound `C=CC(=O)N1CCN(CCCn2c(=O)c(-c3c(Cl)c(OC)cc(OC)c3Cl)cc3cnc(NC)nc32)CC1` [8-(3-(4-acryloylpiperazin-1-yl)propyl)-6-(2,6-dichloro-3,5-dimethoxyphenyl)-2-(methylamino)pyrido[2,3-d]pyrimidin-7(8H)-one] displayed a tumor size of 55 mm3.

The term pKi denotes the Ki on a negative log10 scale, so that one unit is a factor of ten.
